*1 amine or outer side, *2 acyl side, *3 side chain or, on linkers, in order; H or OH if unused. Where a SMILES comes first, the peptide text is derived from it. Bridges are numbered along the chain shown (N, C = ends). [ ]: non-standard residue; d: D form. Phe(3,4,5-F3) = N[C@@H](Cc1cc(F)c(F)c(F)c1)C(=O)O; d(cisHyp) = O=C(O)[C@H]1C[C@@H](O)CN1; NMeF = CN[C@@H](Cc1ccccc1)C(=O)O; X1 = O=C([C@H]1COCCN1[*:1])[*:2]; NMeE = CN[C@@H](CCC(=O)O)C(=O)O; NMeNle = CCCC[C@H](NC)C(=O)O; hSer = N[C@@H](CCO)C(=O)O; Orn = NCCC[C@H](N)C(=O)O
Target: T1, Human PD-L1/PD-1 (Homo sapiens, UniProt Q9NZQ7)
T1 construct: TVMV protease cleavage site (C); made in house; host or cells: HEK293T cells
T1 sequence (Q9NZQ7 with tags, fused parts or gaps): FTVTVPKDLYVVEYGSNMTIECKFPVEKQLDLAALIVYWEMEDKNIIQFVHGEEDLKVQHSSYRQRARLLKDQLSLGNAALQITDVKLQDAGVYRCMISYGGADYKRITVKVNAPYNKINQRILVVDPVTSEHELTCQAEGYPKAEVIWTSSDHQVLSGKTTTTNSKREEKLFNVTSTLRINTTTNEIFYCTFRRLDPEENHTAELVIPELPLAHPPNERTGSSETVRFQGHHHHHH
Assay: HTRF Human PD-L1/PD-1 binding assay (PD-1-Ig/PD-L1-His)
Details: PD-L1-His 10 nM, PD-1-Ig 20 nM; class symbol; read-out: HTRF Human PD-L1/PD-1 Binding Assay IC50 Range
How it was run: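 Step 1: compound with PD-L1-His (10 nM final), 15 min. Step 2: PD-1-Ig (20 nM final), 15 min. Step 3: Eu-cryptate anti-Ig (1 nM) plus APC anti-His (20 nM), 30 min equilibration. Signal taken as 665 nm/620 nm ratio.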

| IC50 | Structure (SMILES) |
| --- | --- |
| 10 to 99.9 nM | CCCC[C@H]1C(=O)N2CCC[C@@H]2C(=O)N[C@@H](CC(=O)O)C(=O)N[C@@H](C(C)C)C(=O)N(C)[C@@H](Cc2ccccc2)C(=O)N[C@@H](CC(=O)O)C(=O)N2C[C@H](O)C[C@@H]2C(=O)N[C@@H](Cc2c[nH]c3ccccc23)C(=O)N[C@@H](Cc2ccc(O)cc2)C(=O)N[C@@H](CCO)C(=O)N[C@H](C(=O)NCC(N)=O)CSCC(=O)N[C@@H](Cc2cc(F)c(F)c(F)c2)C(=O)N(C)[C@@H](Cc2ccccc2)C(=O)N1C [Example 10172] ({CH2CO}-[Phe(3,4,5-F3)][NMeF][NMeNle][dP]DV[NMeF]D[d(cisHyp)]WY[hSer]CG-NH2; thioether N-13) |
| 10 to 99.9 nM | CCCC[C@H]1C(=O)N2C[C@H](O)C[C@@H]2C(=O)N[C@@H](CC(=O)O)C(=O)N[C@@H](C(C)C)C(=O)N(C)[C@@H](Cc2ccccc2)C(=O)N[C@@H](CC(=O)O)C(=O)N2C[C@H](O)C[C@@H]2C(=O)N[C@@H](Cc2c[nH]c3ccccc23)C(=O)N[C@@H](Cc2ccc(O)cc2)C(=O)N[C@@H](CCO)C(=O)N[C@H](C(=O)NCC(N)=O)CSCC(=O)N[C@@H](Cc2cc(F)c(F)c(F)c2)C(=O)N(C)[C@@H](Cc2ccccc2)C(=O)N1C [Example 10173] ({CH2CO}-[Phe(3,4,5-F3)][NMeF][NMeNle][d(cisHyp)]DV[NMeF]D[d(cisHyp)]WY[hSer]CG-NH2; thioether N-13) |
| 1 to 9.9 nM | CCCC[C@H]1C(=O)N2CCC[C@@H]2C(=O)N[C@@H](CC(=O)O)C(=O)N[C@@H](C(C)C)C(=O)N(C)[C@@H](Cc2ccccc2)C(=O)N[C@@H](CC(=O)O)C(=O)N2C[C@H](O)C[C@@H]2C(=O)N[C@@H](Cc2c[nH]c3ccccc23)C(=O)N[C@@H](Cc2ccc(O)cc2)C(=O)N[C@@H](CCCCN)C(=O)N[C@H](C(=O)NCC(N)=O)CSCC(=O)N[C@@H](Cc2cc(F)c(F)c(F)c2)C(=O)N(C)[C@@H](Cc2ccccc2)C(=O)N1C [Example 10174] ({CH2CO}-[Phe(3,4,5-F3)][NMeF][NMeNle][dP]DV[NMeF]D[d(cisHyp)]WYKCG-NH2; thioether N-13) |
| 1 to 9.9 nM | CCCC[C@H]1C(=O)N2CCC[C@@H]2C(=O)N[C@@H](CC(=O)O)C(=O)N[C@@H](C(C)C)C(=O)N(C)[C@@H](Cc2ccccc2)C(=O)N[C@@H](CCCN)C(=O)N2CCC[C@@H]2C(=O)N[C@@H](Cc2c[nH]c3ccccc23)C(=O)N[C@@H](Cc2ccc(O)cc2)C(=O)N[C@@H](CCO)C(=O)N[C@H](C(=O)NCC(N)=O)CSCC(=O)N[C@@H](Cc2cc(F)c(F)c(F)c2)C(=O)N(C)[C@@H](Cc2ccccc2)C(=O)N1C [Example 10175] ({CH2CO}-[Phe(3,4,5-F3)][NMeF][NMeNle][dP]DV[NMeF][Orn][dP]WY[hSer]CG-NH2; thioether N-13) |
| 10 to 99.9 nM | CCCC[C@H]1C(=O)N2C[C@H](O)C[C@@H]2C(=O)N[C@@H](CC(=O)O)C(=O)N[C@@H](C(C)C)C(=O)N(C)[C@@H](Cc2ccccc2)C(=O)N[C@@H](Cc2ccc(O)cc2)C(=O)N2CCOC[C@@H]2C(=O)N[C@@H](Cc2c[nH]c3ccccc23)C(=O)N[C@@H](Cc2ccc(O)cc2)C(=O)N[C@@H](CC(C)C)C(=O)N[C@H](C(=O)NCC(N)=O)CSCC(=O)N[C@@H](Cc2cc(F)c(F)c(F)c2)C(=O)N(C)[C@@H](CCC(=O)O)C(=O)N1C [Example 10177] ({CH2CO}-[Phe(3,4,5-F3)][NMeE][NMeNle][d(cisHyp)]DV[NMeF]Y[X1]WYLCG-NH2; thioether N-13) |

Same assay, conditions: PD-L1-His 10 nM, PD-1-Ig 20 nM; read-out: HTRF Human PD-L1/PD-1 Binding Assay IC50

| IC50 | Structure (SMILES) |
| --- | --- |
| 11 nM | CC(C)C[C@@H]1NC(=O)[C@H](Cc2ccc(O)cc2)NC(=O)[C@H](Cc2c[nH]c3ccccc23)NC(=O)[C@H]2COCCN2C(=O)[C@H](Cc2ccc(O)cc2)NC(=O)[C@H](Cc2ccccc2)N(C)C(=O)[C@H](C(C)C)NC(=O)[C@H](CC(=O)O)NC(=O)[C@H]2C[C@@H](O)CN2C(=O)[C@H](CCC(=O)O)N(C)C(=O)[C@H](Cc2ccccc2)N(C)C(=O)[C@H](Cc2cc(F)c(F)c(F)c2)NC(=O)CSC[C@@H](C(=O)NCC(N)=O)NC1=O [Example 10176] ({CH2CO}-[Phe(3,4,5-F3)][NMeF][NMeE][d(cisHyp)]DV[NMeF]Y[X1]WYLCG-NH2; thioether N-13) |

Source: patent publication US10538555B2, “Macrocyclic inhibitors of the PD-1/PD-L1 and CD80(B7-1)/PD-L1 protein/protein interactions” (BRISTOL-MYERS SQUIBB COMPANY, priority 2014, dated 2020)
